Test results: PubChem BioAssay (NCI)
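Values below derive from 48-hour exposures of cells grown in 96-well plates, with endpoints linearly interpolated between the two concentrations bracketing the appropriate inhibition level. The concentration for full growth arrest is given as TGI.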

Tests used:
Test in all cases: DTP human tumour cell line panel, 48 h
A498 renal = system: A498 renal
A549 NSCLC = system: A549 NSCLC
BT-549 breast = system: BT-549 breast
CAKI-1 renal = system: CAKI-1 renal
COLO 205 colon = system: COLO 205 colon
DU-145 prostate = system: DU-145 prostate
EKVX NSCLC = system: EKVX NSCLC
HCC-2998 colon = system: HCC-2998 colon
HCT-116 colon = system: HCT-116 colon
HCT-15 colon = system: HCT-15 colon
HOP-62 NSCLC = system: HOP-62 NSCLC
HOP-92 NSCLC = system: HOP-92 NSCLC
HS 578T breast = system: HS 578T breast
HT29 colon = system: HT29 colon
IGROV1 ovarian = system: IGROV1 ovarian
K-562 leukemia = system: K-562 leukemia
LOX IMVI melanoma = system: LOX IMVI melanoma
M14 melanoma = system: M14 melanoma
MALME-3M melanoma = system: MALME-3M melanoma
MCF7 breast = system: MCF7 breast
MDA-MB-231 breast = system: MDA-MB-231 breast
MDA-MB-435 = system: MDA-MB-435
MDA-N = system: MDA-N
MOLT-4 leukemia = system: MOLT-4 leukemia
NCI-H226 lung = system: NCI-H226 lung
NCI-H23 lung = system: NCI-H23 lung
NCI-H460 lung = system: NCI-H460 lung
NCI/ADR-RES ovarian = system: NCI/ADR-RES ovarian
OVCAR-3 ovarian = system: OVCAR-3 ovarian
OVCAR-5 ovarian = system: OVCAR-5 ovarian
OVCAR-8 ovarian = system: OVCAR-8 ovarian
PC-3 prostate = system: PC-3 prostate
RXF 393 renal = system: RXF 393 renal
SF-268 CNS = system: SF-268 CNS
SF-295 CNS = system: SF-295 CNS
SF-539 CNS = system: SF-539 CNS
SK-MEL-2 melanoma = system: SK-MEL-2 melanoma
SK-MEL-28 melanoma = system: SK-MEL-28 melanoma
SK-MEL-5 melanoma = system: SK-MEL-5 melanoma
SK-OV-3 ovarian = system: SK-OV-3 ovarian
SN12C renal = system: SN12C renal
SNB-19 CNS = system: SNB-19 CNS
SNB-75 CNS = system: SNB-75 CNS
SR leukemia = system: SR leukemia
SW-620 colon = system: SW-620 colon
T-47D breast = system: T-47D breast
TK-10 renal = system: TK-10 renal
U251 CNS = system: U251 CNS
UACC-257 melanoma = system: UACC-257 melanoma
UACC-62 melanoma = system: UACC-62 melanoma
UO-31 renal = system: UO-31 renal
786-0 renal = system: 786-0 renal
ACHN renal = system: ACHN renal
KM12 colon = system: KM12 colon
NCI-H522 lung = system: NCI-H522 lung
OVCAR-4 ovarian = system: OVCAR-4 ovarian
RPMI-8226 leukemia = system: RPMI-8226 leukemia

Measured: TGI

O=C1CC2(CCC(O)(c3cccc4ccccc34)C(C(=O)c3cccc4ccccc34)C2)C(=O)c2ccccc2N1 (stereo unspecified)
34.3 µM: SNB-75 CNS
47.9 µM: HS 578T breast
36.9 µM: RXF 393 renal
47.7 µM: SNB-19 CNS
40.4 µM: HOP-62 NSCLC
23.6 µM: NCI-H460 lung
36.7 µM: HOP-92 NSCLC
68 µM: MDA-MB-231 breast
91.6 µM: SF-268 CNS
not listed: 786-0 renal | ACHN renal | KM12 colon | NCI-H522 lung | OVCAR-4 ovarian | RPMI-8226 leukemia
> 100 µM: all other assays above

Nc1ccn(C2OC(COP(=O)(O)OCC3OC(n4cc(F)c(=O)[nH]c4=O)CC3O)C(O)C2O)c(=O)n1 (stereo unspecified)
> 42.1 µM: NCI-H23 lung
> 88.6 µM: SR leukemia
12.9 µM: M14 melanoma
> 34.2 µM: ACHN renal
7.95 µM: MOLT-4 leukemia
99.3 µM: A498 renal
> 50.1 µM: CAKI-1 renal
not listed: HOP-62 NSCLC | NCI-H460 lung
> 100 µM: all other assays above
